Source: ChEMBL document CHEMBL1201862, “PubChem BioAssay data set” (2004)
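Results reflect a 48-hour exposure of cells in 96-well plates to compound at five concentrations. GI50 marks 50% less growth.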 Active and inactive are the calls of the source. Rule as the data show it: active = GI50 up to about 1.1 µM and inactive = higher.

How the values were obtained:
Assay in all cases: NCI tumour cell line growth inhibition, 48 h
786-0 = system: 786-0
ACHN = system: ACHN
CAKI-1 = system: CAKI-1
CCRF-CEM = system: CCRF-CEM
COLO 205 = system: COLO 205
DU-145 = system: DU-145
EKVX = system: EKVX
HCC 2998 = system: HCC 2998
HCT-116 = system: HCT-116
HCT-15 = system: HCT-15
HL-60 = system: HL-60
HOP-62 = system: HOP-62
HOP-92 = system: HOP-92
HT-29 = system: HT-29
Hs-578T = system: Hs-578T
IGROV-1 = system: IGROV-1
K562 = system: K562
KM12 = system: KM12
LOX IMVI = system: LOX IMVI
M14 = system: M14
MCF7 = system: MCF7
MDA-MB-231 = system: MDA-MB-231
MDA-MB-435 = system: MDA-MB-435
MDA-N = system: MDA-N
MOLT-4 = system: MOLT-4
Malme-3M = system: Malme-3M
NCI-H226 = system: NCI-H226
NCI-H23 = system: NCI-H23
NCI-H460 = system: NCI-H460
NCI-H522 = system: NCI-H522
NCI/ADR-RES = system: NCI/ADR-RES
OVCAR-3 = system: OVCAR-3
OVCAR-4 = system: OVCAR-4
OVCAR-5 = system: OVCAR-5
OVCAR-8 = system: OVCAR-8
PC-3 = system: PC-3
RPMI-8226 = system: RPMI-8226
RXF 393 = system: RXF 393
SF-268 = system: SF-268
SF-295 = system: SF-295
SF-539 = system: SF-539
SK-MEL-28 = system: SK-MEL-28
SK-MEL-5 = system: SK-MEL-5
SK-OV-3 = system: SK-OV-3
SN12C = system: SN12C
SNB-19 = system: SNB-19
SR = system: SR
SW-620 = system: SW-620
T47D = system: T47D
TK-10 = system: TK-10
U-251 = system: U-251
UACC-257 = system: UACC-257
UACC-62 = system: UACC-62
A549 = system: A549
SNB-75 = system: SNB-75
UO-31 = system: UO-31
A498 = system: A498
SK-MEL-2 = system: SK-MEL-2

## C[C@@H]([C@H]1CC[C@@]2(C)[C@@H]3CC[C@@H]4C(=CC3=CC[C@]12C)CC[C@H](N(C)C)C4(C)C)N(C)C [BUXAMINE A]
786-0
  GI50: > 100 µM (inactive)
ACHN
  GI50: > 100 µM (inactive)
CAKI-1
  GI50: > 100 µM (inactive)
CCRF-CEM
  GI50: > 100 µM (inactive)
COLO 205
  GI50: > 100 µM (inactive)
DU-145
  GI50: > 100 µM (inactive)
EKVX
  GI50: > 100 µM (inactive)
HCC 2998
  GI50: > 100 µM (inactive)
HCT-116
  GI50: > 100 µM (inactive)
HCT-15
  GI50: > 100 µM
HL-60
  GI50: > 100 µM (inactive)
HOP-62
  GI50: > 100 µM (inactive)
HOP-92
  GI50: > 100 µM (inactive)
HT-29
  GI50: > 100 µM (inactive)
Hs-578T
  GI50: > 100 µM (inactive)
IGROV-1
  GI50: > 100 µM (inactive)
K562
  GI50: > 100 µM (inactive)
KM12
  GI50: > 100 µM (inactive)
LOX IMVI
  GI50: > 100 µM (inactive)
M14
  GI50: > 100 µM (inactive)
MCF7
  GI50: > 100 µM (inactive)
MDA-MB-231
  GI50: > 100 µM (inactive)
MDA-MB-435
  GI50: > 100 µM (inactive)
MDA-N
  GI50: > 100 µM (inactive)
MOLT-4
  GI50: > 100 µM (inactive)
Malme-3M
  GI50: > 100 µM (inactive)
NCI-H226
  GI50: > 100 µM (inactive)
NCI-H23
  GI50: > 100 µM (inactive)
NCI-H460
  GI50: > 100 µM (inactive)
NCI-H522
  GI50: > 100 µM (inactive)
NCI/ADR-RES
  GI50: > 100 µM (inactive)
OVCAR-3
  GI50: > 100 µM (inactive)
OVCAR-4
  GI50: > 100 µM (inactive)
OVCAR-5
  GI50: > 100 µM (inactive)
OVCAR-8
  GI50: > 100 µM (inactive)
PC-3
  GI50: > 100 µM (inactive)
RPMI-8226
  GI50: > 100 µM (inactive)
RXF 393
  GI50: > 100 µM (inactive)
SF-268
  GI50: > 100 µM (inactive)
SF-295
  GI50: > 100 µM (inactive)
SF-539
  GI50: > 100 µM (inactive)
SK-MEL-28
  GI50: > 100 µM (inactive)
SK-MEL-5
  GI50: > 100 µM (inactive)
SK-OV-3
  GI50: > 100 µM (inactive)
SN12C
  GI50: > 100 µM (inactive)
SNB-19
  GI50: > 100 µM (inactive)
SR
  GI50: > 100 µM (inactive)
SW-620
  GI50: > 100 µM (inactive)
T47D
  GI50: > 100 µM (inactive)
TK-10
  GI50: > 100 µM (inactive)
U-251
  GI50: > 100 µM (inactive)
UACC-257
  GI50: > 100 µM (inactive)
UACC-62
  GI50: > 100 µM (inactive)

## CC1(C)CC(=O)C2=C(C1)OC1=C(C(=O)CC(C)(C)C1)C2CC(c1ccccc1)c1ccc(O)c(O)c1O (stereo unspecified)
A549
  GI50: 3.73 µM (inactive)
ACHN
  GI50: > 10 µM (inactive)
CAKI-1
  GI50: 5.11 µM (inactive)
DU-145
  GI50: > 10 µM (inactive)
EKVX
  GI50: > 10 µM (inactive)
HCT-116
  GI50: 8.81 µM (inactive)
HCT-15
  GI50: 4.18 µM
HOP-92
  GI50: 5.18 µM (inactive)
HT-29
  GI50: 3.04 µM (inactive)
IGROV-1
  GI50: > 10 µM (inactive)
KM12
  GI50: 3.41 µM (inactive)
M14
  GI50: 9.91 µM (inactive)
MDA-MB-231
  GI50: 8.91 µM (inactive)
MDA-MB-435
  GI50: 8.13 µM (inactive)
MDA-N
  GI50: > 10 µM (inactive)
NCI-H226
  GI50: > 10 µM (inactive)
NCI-H23
  GI50: 5.9 µM (inactive)
NCI/ADR-RES
  GI50: > 10 µM (inactive)
OVCAR-3
  GI50: 3.54 µM (inactive)
OVCAR-4
  GI50: 6.38 µM (inactive)
OVCAR-5
  GI50: > 10 µM (inactive)
OVCAR-8
  GI50: > 10 µM (inactive)
PC-3
  GI50: 2.87 µM (inactive)
RXF 393
  GI50: > 10 µM (inactive)
SF-268
  GI50: > 10 µM (inactive)
SF-295
  GI50: 3.96 µM (inactive)
SF-539
  GI50: > 10 µM (inactive)
SK-MEL-5
  GI50: 5.68 µM (inactive)
SN12C
  GI50: > 10 µM (inactive)
SNB-19
  GI50: > 10 µM (inactive)
SNB-75
  GI50: 3.05 µM (inactive)
SW-620
  GI50: 3.36 µM (inactive)
TK-10
  GI50: > 10 µM (inactive)
U-251
  GI50: > 10 µM (inactive)
UO-31
  GI50: > 10 µM (inactive)

## CC1CN=C(N(C)C(=O)Nc2ccc(Cl)c(Cl)c2)S1 (stereo unspecified)
786-0
  GI50: 35.6 µM (inactive)
A498
  GI50: 48.4 µM (inactive)
A549
  GI50: 27.7 µM (inactive)
ACHN
  GI50: 11 µM (inactive)
CAKI-1
  GI50: 7.53 µM (inactive)
CCRF-CEM
  GI50: 33.3 µM (inactive)
COLO 205
  GI50: 40.8 µM (inactive)
DU-145
  GI50: 44.8 µM (inactive)
EKVX
  GI50: 32.4 µM (inactive)
HCC 2998
  GI50: 38.6 µM (inactive)
HCT-116
  GI50: 39 µM (inactive)
HCT-15
  GI50: 21.3 µM
HL-60
  GI50: 22.5 µM (inactive)
HOP-62
  GI50: 21.8 µM (inactive)
HOP-92
  GI50: 4.76 µM (inactive)
HT-29
  GI50: 33 µM (inactive)
Hs-578T
  GI50: 22.8 µM (inactive)
IGROV-1
  GI50: 27.2 µM (inactive)
K562
  GI50: 23.4 µM (inactive)
KM12
  GI50: 32.4 µM (inactive)
LOX IMVI
  GI50: 17.5 µM (inactive)
M14
  GI50: 0.127 µM (active)
MCF7
  GI50: 19.3 µM (inactive)
MDA-MB-231
  GI50: 28.1 µM (inactive)
MDA-N
  GI50: 31 µM (inactive)
MOLT-4
  GI50: 27.9 µM (inactive)
Malme-3M
  GI50: 46.5 µM (inactive)
NCI-H23
  GI50: 32.3 µM (inactive)
NCI-H460
  GI50: 36 µM (inactive)
NCI/ADR-RES
  GI50: 14.4 µM (inactive)
OVCAR-3
  GI50: 20.5 µM (inactive)
OVCAR-4
  GI50: 36.6 µM (inactive)
OVCAR-5
  GI50: 15.2 µM (inactive)
OVCAR-8
  GI50: 27.2 µM (inactive)
PC-3
  GI50: 27.4 µM (inactive)
RPMI-8226
  GI50: 31.7 µM (inactive)
SF-268
  GI50: 27.9 µM (inactive)
SF-295
  GI50: 30.9 µM (inactive)
SF-539
  GI50: 17.7 µM (inactive)
SK-MEL-28
  GI50: 16.6 µM (inactive)
SK-MEL-2
  GI50: 17.4 µM (inactive)
SK-MEL-5
  GI50: 15.7 µM (inactive)
SK-OV-3
  GI50: > 100 µM (inactive)
SN12C
  GI50: 26.5 µM (inactive)
SNB-19
  GI50: 80 µM (inactive)
SNB-75
  GI50: 19.1 µM (inactive)
SR
  GI50: 29.2 µM (inactive)
SW-620
  GI50: 29.5 µM (inactive)
T47D
  GI50: 19.3 µM (inactive)
TK-10
  GI50: 26.8 µM (inactive)
U-251
  GI50: 31.6 µM (inactive)
UACC-257
  GI50: 26.9 µM (inactive)
UO-31
  GI50: 29.5 µM (inactive)
